Data on 10 compounds can be found in patent US9732063B2, “Kinase inhibitors” (RESPIVERT LIMITED, priority 2012, dated 2017).

Like-named read-outs stand apart in the source and are kept apart here. Bounds are passed on as bounds.

The IC50 is the midpoint of a concentration-inhibition curve.

For test [1], the system named is PBMCs. Description: LPS-induced TNFα/IL-8 release in PBMC cells. The class given is cell-based. Conditions: Homo sapiens, read-out: IC50 Values for Inhibition of Cytokine Release PBMCs IL-8. Summed up:
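Healthy-donor PBMCs, isolated by density gradient, were pretreated with compound for 2 h and then stimulated with 1 ng/mL E. coli O111:B4 LPS for 24 h at 37 °C, 5% CO2. Supernatant IL-8 and TNFα were quantified by sandwich ELISA.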

A further test relates to HT29 cells. Put plainly: IL-1β-induced IL-8 release in HT29 cells. The class given is cell-based. The settings on record: Homo sapiens, HT-29, read-out: IC50 Values for Inhibition of Cytokine Release HT29 cells IL-8. Here is the method: HT29 cells, a human colon adenocarcinoma cell line, are plated in a 96 well plate (24 hrs) and pre-treated with compounds at the desired concentration for 2 hours before addition of 5 ng/mL of IL-1β (Abcam) for 24 hours. Supernatants are harvested for IL-8 quantification by Sandwich ELISA (Duo-set, R&D System). The IC50 is determined from the dose response curve.

The test system of the next test is d-U937 cells. Description: LPS-induced TNFα/IL-8 release in d-U937 cells. Format: cell-based. The settings on record: Homo sapiens. Here is the method: Cells are pre-incubated with final concentrations of test compound for 2 hr and are then stimulated with 0.1 μg/mL of LPS (from E. coli: O111:B4, Sigma) for 4 hr. The supernatant is collected for determination of TNFα and IL-8 concentrations by sandwich ELISA (Duo-set, R&D systems). […] The relative 50% effective concentration (REC50) is determined from the resultant concentration-response curve. The inhibition of IL-8 production is calculated at each concentration of test compound by comparison with vehicle control.

A further test addresses p38 MAPKα (Homo sapiens (Human), UniProt Q16539). Description: p38 MAPKα enzyme inhibition (Z-LYTE FRET, Method 2). The class given is biochemical. Here is the method: (§1) The enzyme inhibitory activities of compounds disclosed herein are determined by FRET using synthetic peptides labelled with both donor and acceptor fluorophores (Z-LYTE, Invitrogen Ltd., Paisley, UK).
The inhibitory activities of test compounds against the p38 MAPKα isoform (MAPK14: Invitrogen), are evaluated indirectly by determining the level of activation/phosphorylation of the down-stream molecule, MAPKAP-K2. The p38 MAPKα protein (80 ng/mL, 2.5 μL) is mixed with the test compound (2.5 μL of either 4 μg/mL, 0.4 μg/mL, 0.04 μg/mL or 0.004 μg/mL) for 2 hr at RT. […] The mixture is incubated for 1 hr at RT. Development reagent (protease, 5 μL) is added for 1 hr prior to detection in a fluorescence microplate reader (Varioskan® Flash, ThermoFisher Scientific).
(§2) In all cases, the site-specific protease cleaves non-phosphorylated peptide only and eliminates the FRET signal. Phosphorylation levels of each reaction are calculated using the ratio of coumarin emission (donor) over fluorescein emission (acceptor), for which high ratios indicate high phosphorylation and low ratios indicate low phosphorylation levels.

Test [2] has as its system PBMCs. Description: IL-2 and IFN gamma release in CD3/CD28 stimulated PBMC cells. Format: cell-based. Conditions: Homo sapiens. In a few lines: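 They were cultured with compound for 3 days. IL-2 and IFN-γ in supernatants were quantified by sandwich ELISA, and IC50 was derived from the dose-response curve.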
A further test deals with Syk (Homo sapiens (Human), UniProt P43405). Description: Syk enzyme inhibition (Z-LYTE FRET). The class given is biochemical. Here is the method: as §1
(§3) The relevant enzyme (3000 ng/mL or 2000 ng/mL respectively, 2.5 μL) is incubated with the test compound (either 4 μg/mL, 0.4 μg/mL, 0.04 μg/mL, or 0.004 μg/mL, 2.5 μL each) for 2 hr at RT. The FRET peptides (8 μM, 2.5 μL), and appropriate ATP solutions (2.5 μL, 800 μM for c-Src, and 60 μM ATP for Syk) are then added to the enzymes/compound mixtures and incubated for 1 hr. Development reagent (protease, 5 μL) is added for 1 hr prior to detection in a fluorescence microplate reader (Varioskan® Flash, ThermoFisher Scientific).
as §2

In another test the target is c-Src (Homo sapiens (Human), UniProt P12931). Put plainly: c-Src enzyme inhibition (Z-LYTE FRET). The class given is biochemical. How it is done:
as §1, §3, §2

The next test addresses GSK3α (Homo sapiens (Human), UniProt P49840). Put plainly: GSK 3α enzyme inhibition (Z-LYTE FRET, Method 2). Format: biochemical. Summed up:
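Z-LYTE FRET: GSK3α preincubated with compound 2 h at RT, then FRET peptide and ATP added (stocks 8 μM and 40 μM) for 1 h, followed by 1 h protease development. Compound stocks 4–0.004 μg/mL; phosphorylation from coumarin/fluorescein emission ratio.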

Where [3] appears, read: dU937, read-out: IC50 Values for Inhibition of Cytokine Release dU937 cells TNFα.
[4] abbreviates: read-out: IC50 Values for Inhibition of Cytokine Release PBMCs IL-2.
The mark [5] stands for this setting: dU937, read-out: IC50 Values for Inhibition of Cytokine Release dU937 cells IL-8.
Setting [6] is: read-out: IC50 Values for Inhibition of Cytokine Release PBMCs IFNγ.

Chain of GSK3α (P49840 whole entry): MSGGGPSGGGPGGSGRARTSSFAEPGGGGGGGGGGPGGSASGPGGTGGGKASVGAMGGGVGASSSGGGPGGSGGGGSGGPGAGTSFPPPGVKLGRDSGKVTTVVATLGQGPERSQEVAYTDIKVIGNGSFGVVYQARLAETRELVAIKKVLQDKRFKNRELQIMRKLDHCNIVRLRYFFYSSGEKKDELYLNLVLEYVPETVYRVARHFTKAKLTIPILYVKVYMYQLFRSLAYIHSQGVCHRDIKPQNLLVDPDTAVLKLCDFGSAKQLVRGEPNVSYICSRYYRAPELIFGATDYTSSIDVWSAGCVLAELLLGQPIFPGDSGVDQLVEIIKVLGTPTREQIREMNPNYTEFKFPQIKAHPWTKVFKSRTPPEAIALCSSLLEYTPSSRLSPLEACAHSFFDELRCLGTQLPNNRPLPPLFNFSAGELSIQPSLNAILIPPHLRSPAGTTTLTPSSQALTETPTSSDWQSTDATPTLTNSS
Chain of c-Src (P12931 whole entry, looked up): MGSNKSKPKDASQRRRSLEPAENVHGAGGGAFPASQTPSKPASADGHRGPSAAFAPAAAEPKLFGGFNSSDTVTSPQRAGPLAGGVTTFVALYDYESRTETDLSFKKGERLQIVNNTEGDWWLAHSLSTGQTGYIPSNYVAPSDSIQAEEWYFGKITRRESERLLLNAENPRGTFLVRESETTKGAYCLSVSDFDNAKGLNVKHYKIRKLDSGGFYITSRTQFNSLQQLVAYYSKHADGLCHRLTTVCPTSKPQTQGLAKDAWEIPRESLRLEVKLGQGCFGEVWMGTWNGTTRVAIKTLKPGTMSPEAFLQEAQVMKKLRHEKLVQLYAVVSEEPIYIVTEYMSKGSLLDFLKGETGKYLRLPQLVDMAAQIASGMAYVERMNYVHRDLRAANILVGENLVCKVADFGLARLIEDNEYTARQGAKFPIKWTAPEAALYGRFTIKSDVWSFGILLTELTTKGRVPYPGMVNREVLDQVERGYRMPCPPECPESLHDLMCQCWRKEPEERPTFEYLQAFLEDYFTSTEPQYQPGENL
Chain of p38 MAPKα (Q16539 whole entry, canonical isoform): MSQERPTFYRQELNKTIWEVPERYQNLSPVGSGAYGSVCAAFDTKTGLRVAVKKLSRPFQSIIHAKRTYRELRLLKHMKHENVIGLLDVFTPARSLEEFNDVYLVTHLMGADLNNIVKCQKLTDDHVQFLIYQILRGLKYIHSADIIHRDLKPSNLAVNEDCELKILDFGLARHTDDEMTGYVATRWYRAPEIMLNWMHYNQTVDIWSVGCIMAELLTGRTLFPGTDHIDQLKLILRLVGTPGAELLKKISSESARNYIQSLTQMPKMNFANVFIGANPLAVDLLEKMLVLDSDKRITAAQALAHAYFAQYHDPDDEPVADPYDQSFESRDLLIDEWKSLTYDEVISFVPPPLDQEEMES

On to `Cc1ccc(-n2nc(C(C)C)cc2NC(=O)Nc2ccc(Oc3ccnc(Nc4cccc(N=S(C)(C)=O)c4)n3)c3ccccc23)cc1` [Example 14], for which the IC50 was 2.4 nM in the test with PBMCs [1] and 7.9 nM with HT29 cells.
Regarding `COc1cc(Nc2nccc(Oc3ccc(NC(=O)Nc4cc(C(C)C)nn4-c4ccc(C)cc4)c4ccccc34)n2)cc(OCCOCCOCCO)c1` [Example 20, 1-(4-((2-((3-(2-(2-(2-Hydroxyethoxy)ethoxy)ethoxy)-5-methoxyphenyl)amino)pyrimidin-4-yl)oxy)naphthalen-1-yl)-3-(3-isopropyl-1-(P-tolyl)-1H-pyrazol-5-yl)urea], the IC50 in the test with d-U937 cells (setting [3]) stood at 1.6 nM; against p38 MAPKα it was 26 nM; in the test with PBMCs [2] (setting [4]), 80.8 nM; against Syk, 8 nM; with PBMCs [1], 1.5 nM; against c-Src, 8 nM.
Consider `COc1cc(Nc2nccc(Oc3ccc(NC(=O)Nc4cc(C(C)C)nn4-c4ccc(C)cc4)c(Cl)c3Cl)n2)cc(OCCN2CCOCC2)c1` [Example 21, 1-(2,3-Dichloro-4-((2-((3-methoxy-5-(2-morpholinoethoxyl)phenyl)amino)pyrimidin-4-yl)-oxy)phenyl)-3-(3-isopropyl-1-(p-tolyl)-1H-pyrazol-5-yl)urea], for which the IC50 in the test on d-U937 cells (setting [5]) is 1.6 nM; in the test with d-U937 cells (setting [3]), 1.1 nM; at p38 MAPKα, 342 nM; with PBMCs [2] (setting [6]), 1.9 nM; in the test with PBMCs [2] (setting [4]) it was 10.7 nM; against Syk, 72 nM. Moreover, the figures for the 50% inhibitory concentration (IC50) in the test on PBMCs [1] and against c-Src were 1.6 nM and 61 nM, respectively.
Consider `COc1cc(Nc2nccc(Oc3ccc(NC(=O)Nc4cc(C(C)(C)C)nn4-c4ccc(C)cc4)c4ccccc34)n2)cc(OCCCN2CCOCC2)c1` [Example 49, 1-(3-(tert-Butyl)-1-(p-tolyl)-1H-pyrazol-5-yl)-3-(4-((2-((3-methoxy-5-(3-morpholino-propoxy)phenyl)amino)pyrimidin-4-yl)oxy)naphthalen-1-yl)urea], for which the IC50 turned out to be 175 nM on p38 MAPKα; 1.2 nM in the test with PBMCs [2] (setting [6]); 54.7 nM in the test with PBMCs [2] (setting [4]); 20 nM against Syk; 1.9 nM in the test with PBMCs [1]; 2.3 nM in the test with HT29 cells. The IC50 on GSK3α stood at 7.26 µM; against c-Src, 23 nM.
In the case of `COCCOCCOCCOc1cc(Nc2nccc(Oc3ccc(NC(=O)Nc4cc(C(C)(C)C)nn4-c4ccc(C)cc4)c(Cl)c3Cl)n2)cc(OC)c1` [Example 53, 1-(3-(tert-Butyl)-1-(p-tolyl)-1H-pyrazol-5-yl)-3-(2,3-dichloro-4-((2-((3-methoxy-5-(2-(2-(2-methoxyethoxyl)ethoxy)ethoxy)phenyl)amino)pyrimidin-4-yl)oxy)phenyl)urea], the IC50 at p38 MAPKα was 816 nM; in the test on PBMCs [2] (setting [6]), 2.1 nM; in the test on PBMCs [2] (setting [4]) it was 133 nM; against Syk, 56 nM; with PBMCs [1], 3.8 nM; in the test with HT29 cells, 2.4 nM. Moreover, the figures for the IC50 at GSK3α and against c-Src were more than 10 µM and 23 nM, respectively.
As to `COc1cc(Nc2nccc(Oc3ccc(NC(=O)Nc4cc(C(C)(C)C)nn4-c4ccc(C)cc4)c4ccccc34)n2)cc(SCCO)c1` [Example 55, 1-(3-(tert-Butyl)-1-(p-tolyl)-1H-pyrazol-5-yl)-3-(4-((2-((3-((2-hydroxyethyl)thio)-5-methoxyphenyl)amino)pyrimidin-4-yl)oxy)naphthalen-1-yl)urea], the IC50 was found to be 200 nM on p38 MAPKα; 2 nM in the test with PBMCs [2] (setting [6]); 36.8 nM with PBMCs [2] (setting [4]); 42 nM against Syk; 2 nM with PBMCs [1]; 2.4 nM with HT29 cells. Further, it took 1.23 µM to reach half-maximal inhibition against GSK3α (IC50).
As for `COc1cc(Nc2nccc(Oc3ccc(NC(=O)Nc4cc(C(C)(C)C)nn4-c4ccc(OC)nc4)c4ccccc34)n2)cc(S(=O)(=O)C2CC2)c1` [Example 61, 1-(3-(tert-Butyl)-1-(6-methoxypyridin-3-yl)-1H-pyrazol-5-yl)-3-(4-((2-((3-(cyclopropylsulfonyl)-5-methoxyphenyl)amino)pyrimidin-4-yl)oxy)naphthalen-1-yl)urea], the IC50 against p38 MAPKα was 301 nM; in the test with PBMCs [2] (setting [6]), 1.9 nM; with PBMCs [2] (setting [4]) it was 42.4 nM; with PBMCs [1], 2 nM; in the test with HT29 cells, 4.8 nM; against GSK3α it was 3.8 µM. The same compound yielded an IC50 on c-Src of 73 nM.
Regarding `COc1cc(Nc2nccc(Oc3ccc(NC(=O)Nc4cc(C(C)(C)C)nn4-c4ccc(C)cc4)c4ccccc34)n2)cc(OCCOCCOCCO)c1` [Example 62, 1-(3-(tert-Butyl)-1-(P-tolyl)-1H-pyrazol-5-yl)-3-(4-((2-((3-(2-(2-(2-hydroxyethoxy)ethoxy)ethoxy)-5-methoxyphenyl)amino)pyrimidin-4-yl)oxy)naphthalen-1-yl)urea], the IC50 at p38 MAPKα worked out at 95 nM; in the test with PBMCs [2] (setting [6]), 2.1 nM; in the test with PBMCs [2] (setting [4]) it was 52.9 nM; at Syk it was 6 nM; in the test on PBMCs [1] it was 1.5 nM; in the test on HT29 cells, 2.5 nM. In addition, it took 4 nM to reach half-maximal inhibition against c-Src (IC50).
Turning to `COc1ccc(-n2nc(C(C)(C)C)cc2NC(=O)Nc2ccc(Oc3ccnc(Nc4cc(OC)cc(S(=O)(=O)C5CC5)c4)n3)c3ccccc23)cc1` [Example 70, 1-(3-(tert-Butyl)-1-(4-methoxyphenyl)-1H-pyrazol-5-yl)-3-(4-((2-((3-(cyclopropylsulfonyl)-5-methoxyphenyl)amino)pyrimidin-4-yl)oxy)naphthalen-1-yl)urea], the IC50 in the test with d-U937 cells (setting [5]) was 1.9 nM; with d-U937 cells (setting [3]), 1.1 nM; on p38 MAPKα, 300 nM; in the test with PBMCs [2] (setting [6]), 1.4 nM; in the test on PBMCs [2] (setting [4]), 73.5 nM; on Syk it was 62 nM. The IC50 in the test on PBMCs [1] amounted to 0.9 nM; at GSK3α, 3.35 µM.
For the compound `COc1cc(Nc2nccc(Oc3ccc(NC(=O)Nc4cc(C(C)(C)C)nn4-c4ccc(C)cc4)c(Cl)c3Cl)n2)cc(OCCOCCOCCO)c1` [Example 71, 1-(3-(tert-Butyl)-1-(p-tolyl)-1H-pyrazol-5-yl)-3-(2,3-dichloro-4-((2-((3-(2-(2-(2-hydroxyethoxyl)ethoxy)ethoxy)-5-methoxyphenyl)amino)pyrimidin-4-yl)oxy)phenyl)urea], the IC50 in the test on d-U937 cells (setting [5]) is 1.3 nM; in the test on d-U937 cells (setting [3]), 1 nM; against p38 MAPKα, 740 nM; in the test with PBMCs [2] (setting [6]), 1.1 nM; in the test with PBMCs [2] (setting [4]) it was 60.8 nM; on Syk, 23 nM. For the same compound, the half-maximal inhibitory concentration (IC50) in the test with PBMCs [1] worked out at 1.8 nM; against GSK3α, 7.74 µM; at c-Src, 19 nM.
